Assay results as given in EP4227307A1 (Genzyme Corporation, priority 2022, dated 2023).
Structures can show the parent of a compound that is named as a salt.

Target: T1, human recombinant 6His-Nterm SHP2 full-length (Thr2-Arg593) (Homo sapiens, UniProt Q06124)
T1 construct: 6His-Nterm SHP2 full-length (Thr2-Arg593, R&D system); 6His (N); purchased R&D system
T1 sequence (Q06124 2-593): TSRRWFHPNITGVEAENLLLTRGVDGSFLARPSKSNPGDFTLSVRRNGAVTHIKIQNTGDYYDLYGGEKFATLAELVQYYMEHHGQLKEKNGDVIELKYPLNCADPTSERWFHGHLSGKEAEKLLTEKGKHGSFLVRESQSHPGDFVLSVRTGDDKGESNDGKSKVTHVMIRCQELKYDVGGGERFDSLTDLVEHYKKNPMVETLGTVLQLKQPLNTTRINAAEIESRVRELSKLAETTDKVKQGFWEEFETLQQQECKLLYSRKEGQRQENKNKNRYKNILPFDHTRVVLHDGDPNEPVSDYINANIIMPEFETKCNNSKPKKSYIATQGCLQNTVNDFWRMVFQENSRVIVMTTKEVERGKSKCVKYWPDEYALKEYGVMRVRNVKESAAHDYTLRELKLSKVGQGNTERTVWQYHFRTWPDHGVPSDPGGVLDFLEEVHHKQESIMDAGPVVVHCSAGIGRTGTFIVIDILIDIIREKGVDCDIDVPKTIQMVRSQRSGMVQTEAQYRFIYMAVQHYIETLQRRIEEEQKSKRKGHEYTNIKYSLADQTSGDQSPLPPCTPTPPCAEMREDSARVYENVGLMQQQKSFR
Experiment: SHP2 Phosphatase Assay (DiFMUP fluorescence)
Assay type: biochemical
Details: SHP2 0.2 nM pre-incubated with 100 nM bi-phosphorylated activating peptide; compound 1000-0.05 nM, 30 min pre-incubation; DiFMUP 20 µM, 45 min, room temperature; 10-concentration dose-response
Procedure: Inhibition of SHP2 phosphatase activity was evaluated using human recombinant 6His-Nterm SHP2 full-length (Thr2-Arg593, R&D system), NsCs bi-phosphorylated activating peptide (NH2-LN(pY)AQLWHA(PEG8)LTI(pY)ATIRRF-Amide.acetate, Thermofischer Scientific) and DiFMUP as surrogate phosphatase substrate (Molecular Probes). All reactions were performed at room temperature in 384-well black polystyrene non-binding plate (Corning) with the assay buffer (50 mM HEPES-NaOH pH 7.2, 100 mM NaCl, 0.5 mM EDTA, 0.001% Brij35 including 0.02% BSA and 1 mM DTT added extemporaneously). SHP2 was pre-incubated at least 10 min with the activating peptide (0.2 nM and 100 nM, respectively). 10 µL of this mixture was added to the assay plate, that already contained 15 nL of the compound (1000-0.05 nM). After 30 min pre-incubation, the enzymatic reaction was initiated by the addition of 5 µL DiFMUP in assay buffer without BSA (20 µM). The reaction was stopped by the addition of 15 µL sodium pervanadate solution (100 µM) after 45 min incubation. The fluorescence signal was measured at excitation and emission wavelengths of 350 nm and 450 nm, respectively, using a Pherastar instrument (BMG-LabTech). Percentage of inhibition […] were calculated from the fluorescence signal at 450 nm of the positive and negative control using the following formula: I% = ((signal Max−signal Sample)/(signal Max−signal Min control)) × 100 [formula]
Positive control (Max): corresponds to the maximum fluorescence signal obtained in the presence of 15 nL DMSO replacing the inhibitor in the pre-incubation step.
Negative control (Min): corresponds to the minimum signal obtained in the presence of 1 µM of RMC-4550, the structure of which is shown below: [drawing 464]
The IC50 were then calculated from a dose-response curve of 10 concentrations of tested compound using the 4-parameter logistic model: I% = A + (C)/(1 + exp(−B×log(X)−M)) [formula]
The parameters A and (A+C) are the lower and upper limits, B is the slope of the curve at the inflexion point, M parameter is the logarithm of the abscissa at the inflexion point, and X is the concentration of compound.

SMILES | IC50
COc1cc2c(cn1)[C@@H](N)C1(CCN(c3nc(C)c(-c4ccnc(C)c4Cl)n4nccc34)CC1)C2 [Compound 121, (7S)-1'-[7-(3-chloro-2-methyl-4-pyridyl)-6-methyl-pyrazolo[1,5-a]pyrazin-4-yl]-3-methoxy-spiro [5,7-dihydrocyclopenta[c]pyridine-6,4'-piperidine]-7-amine] | 8 nM
Cc1nc(N2CCC3(CC2)Cc2cccnc2[C@H]3N)c2ccnn2c1-c1cccc(F)c1Cl [Compound 12, (7S)-1'-[7-(2-chloro-3-fluorophenyl)-6-methyl-pyrazolo[1,5-a]pyrazin-4-yl]spiro[5,7-dihydrocyclopenta[b]pyridine-6,4'-piperidine]-7-amine] | 14 nM
Cc1nc(N2CCC3(CC2)Cc2cc(F)c(F)cc2[C@H]3N)c2ccnn2c1-c1cnn(C)c1C [Compound 80, (1S)-1'-[7-(1,5-dimethylpyrazol-4-yl)-6-methyl-pyrazolo[1,5-a]pyrazin-4-yl]-5,6-difluoro-spiro [indane-2,4'-piperidine]-1-amine hydrochloride] | 17 nM
Cc1nc(N2CCC3(CC2)Cc2ncc(F)cc2[C@H]3N)c2ccnn2c1-c1ccc2nccnc2c1Cl [Compound 79, (5S)-1'-[7-(5-chloroquinoxalin-6-yl)-6-methyl-pyrazolo[1,5-a]pyrazin-4-yl]-3-fluoro-spiro[5,7-dihydrocyclopenta[b]pyridine-6,4'-piperidine]-5-amine hydrochloride] | 10 nM
COc1cccc(-c2c(C)nc(N3CCC4(CC3)Cc3ncccc3[C@H]4N)c3ccnn23)c1Cl [Compound 3, (5S)-1'-(7-(2-chloro-3-methoxyphenyl)-6-methylpyrazolo[1,5-a]pyrazin-4-yl)-5,7-dihydrospiro [cyclopenta[b]pyridine-6,4'-piperidin] -5-amine hydrochloride] | 3 nM
Cc1nccc(-c2cnc(N3CCC4(CC3)Cc3ncccc3[C@H]4N)c3ccnn23)c1Cl [Compound 86, (5S)-1'-[7-(3-chloro-2-methyl-4-pyridyl)pyrazolo[1,5-a]pyrazin-4-yl]spiro[5,7-dihydrocyclopenta[b]pyridine-6,4'-piperidine]-5-amine hydrochloride] | 60 nM
COc1ccc2c(n1)[C@H](N)C1(CCN(c3nc(C)c(-c4cccc(F)c4Cl)n4nccc34)CC1)C2 [Compound 216, (7R)-1'-[7-(2-chloro-3-fluoro-phenyl)-6-methyl-pyrazolo[1,5-a]pyrazin-4-yl]-2-methoxy-spiro[5,7-dihydrocyclopenta[b]pyridine-6,4'-piperidine]-7-amine] | 685 nM
Cc1nccc(-c2c(C)nc(N3CCC4(CC3)Cc3nc(O)sc3[C@H]4N)c3ccnn23)c1Cl [Compound 218, (6S)-6-amino-1'-[7-(3-chloro-2-methyl-4-pyridyl)-6-methyl-pyrazolo[1,5-a]pyrazin-4-yl]spiro[4,6-dihydrocyclopenta[d]thiazole-5,4'-piperidine]-2-ol hydrochloride] | 179 nM
Cc1nc(N2CCC3(CC2)Cc2scnc2[C@H]3N)c2ccnn2c1-c1ccccc1 [Compound 68, (4S)-1'-(6-methyl-7-phenyl-pyrazolo[1,5-a]pyrazin-4-yl)spiro[4,6-dihydrocyclopenta[d]thiazole-5,4'-piperidine]-4-amine hydrochloride] | 18 nM
COc1ccc2c(c1)[C@@H](N)C1(CCN(c3nc(C)c(-c4ccncc4Cl)n4nccc34)CC1)C2 [Compound 119, hydrochloride] | 4 nM
CCn1cc(-c2c(C)nc(N3CCC4(CC3)Cc3cc(OC)ccc3[C@H]4N)c3ccnn23)cn1 [Compound 148, (1S)-1'-[7-(1-ethylpyrazol-4-yl)-6-methyl-pyrazolo[1,5-a]pyrazin-4-yl]-5-methoxy-spiro[indane-2,4'-piperidine]-1-amine] | 9 nM

Other lines, results leading:

IC50 | SMILES
4 nM | COc1ccc(-c2c(C)nc(N3CCC4(CC3)Cc3ncccc3[C@H]4N)c3ccnn23)c(F)c1F [Compound 175, (5 S)-1'-[7-(2,3-difluoro-4-methoxy-phenyl)-6-methyl-pyrazolo[1,5-a]pyrazin-4-yl]spiro[5,7-dihydrocyclopenta[b]pyridine-6,4'-piperidine]-5-amine]
5 nM | Cc1nc(N2CCC3(CC2)Cc2ncccc2[C@H]3N)c2ccnn2c1-c1cccc(C#N)c1F [Compound 181, 2-fluoro-3-[6-methyl-4-[(5S)-5-aminospiro[5,7-dihydrocyclopenta[b]pyridine-6,4'-piperidine]-1'-yl]pyrazolo[1,5-a]pyrazin-7-yl]benzonitrile]
11 nM | COc1cnc2c(c1)[C@@H](N)C1(CCN(c3nc(C)c(-c4cccc(F)c4F)n4nccc34)CC1)C2 [Compound 24, (5S)-1'-[7-(2,3-difluorophenyl)-6-methyl-pyrazolo[1,5-a]pyrazin-4-yl]-3-methoxy-spiro[5,7-dihydrocyclopenta[b]pyridine-6,4'-piperidine]-5-amine]
39 nM | Cc1nc(N2CCC3(CC2)Cc2ncccc2[C@H]3N)c2ccnn2c1-c1cccc(F)c1C#N [Compound 180, 2-fluoro-6-[6-methyl-4-[(5S)-5-aminospiro[5,7-dihydrocyclopenta[b]pyridine-6,4'-piperidine]-1'-yl]pyrazolo[1,5-a]pyrazin-7-yl]benzonitrile]
11 nM | Cc1nc(N2CCC3(CC2)Cc2ncccc2[C@H]3N)c2ccnn2c1-c1c(F)cccc1F [Compound 115, (5S)-1'-[7-(2,6-difluorophenyl)-6-methyl-pyrazolo[1,5-a]pyrazin-4-yl]spiro[5,7-dihydrocyclopenta[b]pyridine-6,4'-piperidine]-5-amine]
8 nM | Cc1nccc(-c2c(C)nc(N3CCC4(CC3)Cc3c(F)cccc3[C@H]4N)c3ccnn23)c1Cl [Compound 92, (1S)-1'-[7-(3-chloro-2-methyl-4-pyridyl)-6-methyl-pyrazolo[1,5-a]pyrazin-4-yl]-4-fluoro-spiro[indane-2,4'-piperidine]-1-amine formate]
228 nM | Cc1nc(N2CCC3(CC2)Cc2ncccc2[C@H]3N)c2cc(C(F)F)nn2c1-c1cnn(C)c1C [Compound 36, (5S)-1'-[2-(difluoromethyl)-7-(1,5-dimethylpyrazol-4-yl)-6-methyl-pyrazolo[1,5-a]pyrazin-4-yl]spiro[5,7-dihydrocyclopenta[b]pyridine-6,4'-piperidine]-5-amine]
58 nM | Cc1nocc1-c1c(C)nc(N2CCC3(CC2)Cc2ccccc2[C@H]3N)c2ccnn12 [Compound 21, (1S)-1'-[6-methyl-7-(3-methylisoxazol-4-yl)pyrazolo[1,5-a]pyrazin-4-yl]spiro[indane-2,4'-piperidine]-1-amine]
8 nM | Cc1cc2c(cn1)CC1(CCN(c3nc(C)c(-c4ccnc(C)c4F)n4nccc34)CC1)[C@@H]2N [Compound 116, (5S)-1'-[7-(3-fluoro-2-methyl-4-pyridyl)-6-methyl-pyrazolo[1,5-a]pyrazin-4-yl]-3-methyl-spiro[5,7-dihydrocyclopenta[c]pyridine-6,4'-piperidine]-5-amine]
9 nM | Cc1nc(N2CCC3(CC2)Cc2ncccc2[C@H]3N)c2ccnn2c1-c1ccc2c(c1)CCCO2 [Compound 167, (5S)-1'-(7-chroman-6-yl-6-methyl-pyrazolo[1,5-a]pyrazin-4-yl)spiro[5,7-dihydrocyclopenta[b]pyridine-6,4'-piperidine]-5-amine]
14 nM | Cc1nc(N2CCC3(CC2)Cc2ncccc2[C@H]3N)c2ccnn2c1-c1cncc(Cl)c1 [Compound 199, (5S)-1'-[7-(5-chloro-3-pyridyl)-6-methyl-pyrazolo[1,5-a]pyrazin-4-yl]spiro[5,7-dihydrocyclopenta[b]pyridine-6,4'-piperidine]-5-amine]
